Some test systems named below: HT29 colon; HS 578T breast; M14 melanoma; UACC-62 melanoma; HCC-2998 colon; PC-3 prostate; HCT-15 colon; SK-MEL-28 melanoma; RXF 393 renal; MOLT-4 leukemia.
Common to all, as to test: NCI tumour cell line growth inhibition, 48 h

SMILES strings stand for the structures.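 Compound exposure: 48 hours, 5 concentrations, 96-well plates. TGI marks complete inhibition of growth.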 Bounds are passed on as bounds.

For `COc1ccc(-n2cnc3c(NC(Cc4ccccc4)C(=O)O)ncnc32)cc1` (stereo not drawn), the TGI in the assay with HT29 colon, in the assay with HS 578T breast, with M14 melanoma, in the assay on UACC-62 melanoma, with HCC-2998 colon and with PC-3 prostate was more than 100 µM in each case. The TGI in the assay with HCT-15 colon and with SK-MEL-28 melanoma was more than 100 µM in each case.
For the molecule `FC(F)(F)c1ccc2nc(Sc3ccc4ccccc4c3)cnc2c1`, the TGI is more than 100 µM with HT29 colon; more than 100 µM in the assay with HS 578T breast; more than 100 µM in the assay on M14 melanoma; 92.6 µM in the assay on RXF 393 renal; more than 100 µM with MOLT-4 leukemia; more than 100 µM in the assay with UACC-62 melanoma. Further, the TGI in the assay with HCC-2998 colon, with HCT-15 colon and with SK-MEL-28 melanoma was more than 100 µM throughout.
As to `CN1CCC2(CC1)C(=NC1CCCCC1)NC(=O)N2c1ccccc1`, the TGI in the assay with HT29 colon, with HS 578T breast, in the assay with M14 melanoma, with RXF 393 renal, with MOLT-4 leukemia and in the assay with UACC-62 melanoma was more than 100 µM each time. The TGI in the assay on HCC-2998 colon, with HCT-15 colon and in the assay with SK-MEL-28 melanoma was more than 100 µM throughout.
For the molecule `O=C(CCC1CCCCN1)Nc1ccc2c(c1)C(=O)c1ccc(NC(=O)CCN3CCCCC3)cc1C2=O` (stereo not drawn), the TGI in the assay with HT29 colon is 10.8 µM; in the assay with M14 melanoma it was 2.8 µM; in the assay on RXF 393 renal it was 2.07 µM; in the assay on SK-MEL-28 melanoma it was 3.77 µM.
For `Cc1c(O)c(=O)ccn1CCc1ccc(O)cc1`, the TGI was more than 100 µM with HT29 colon; 69.6 µM with HS 578T breast; 53 µM with M14 melanoma; more than 100 µM in the assay on MOLT-4 leukemia; 12.8 µM in the assay on UACC-62 melanoma; more than 100 µM in the assay on PC-3 prostate. Moreover, the TGI in the assay on HCT-15 colon and in the assay with SK-MEL-28 melanoma was more than 100 µM in each case.
With `COC(=O)c1cc(/C=C\c2cc(OC)ccc2OC)ccc1OC`, the TGI in the assay with HT29 colon is more than 100 µM; with HS 578T breast, more than 100 µM; in the assay on M14 melanoma, 84.2 µM; in the assay on MOLT-4 leukemia, 41.7 µM; with UACC-62 melanoma it was 90.8 µM; in the assay on HCC-2998 colon it was 45.7 µM. Further, the values for the TGI in the assay with PC-3 prostate, in the assay on HCT-15 colon and in the assay with SK-MEL-28 melanoma were more than 100 µM, more than 100 µM and 59.7 µM, respectively.
With `CC(C)c1ccc(/C=C2\CSCC3=C2N=C2SCC(=O)N2C3c2ccc(C(C)C)cc2)cc1` (stereo not drawn), the TGI in the assay with HT29 colon, in the assay with HS 578T breast, in the assay on M14 melanoma, with MOLT-4 leukemia, with UACC-62 melanoma and with HCC-2998 colon was more than 100 µM in each case. Moreover, the TGI with PC-3 prostate, with HCT-15 colon and in the assay on SK-MEL-28 melanoma was more than 100 µM each time.
In the case of `O=C(Nc1ccc(Cl)cc1)c1cc(S(=O)(=O)Nc2n[nH]c(=O)n2-c2ccccc2)c(S)cc1Cl`, the TGI in the assay with HT29 colon, in the assay on HS 578T breast, in the assay with M14 melanoma, in the assay on RXF 393 renal, in the assay on MOLT-4 leukemia and in the assay with UACC-62 melanoma was more than 100 µM in each case. For the same molecule, the TGI with HCC-2998 colon, with HCT-15 colon and with SK-MEL-28 melanoma was more than 100 µM each time.
`C(#Cc1ccccc1)SC1=C(c2ccccc2)S/C(=C(\SC#Cc2ccccc2)c2ccccc2)S1`: the TGI with HT29 colon, with HS 578T breast, with M14 melanoma, in the assay on MOLT-4 leukemia, in the assay with UACC-62 melanoma and in the assay on HCC-2998 colon was more than 100 µM throughout. The TGI with PC-3 prostate, in the assay with HCT-15 colon and in the assay with SK-MEL-28 melanoma was more than 100 µM throughout.
Take `CCOC(C)OC1CC(n2cc(C)c(=O)[nH]c2=O)OC1CO` (stereo not drawn): the TGI with HT29 colon, in the assay with M14 melanoma, in the assay on RXF 393 renal, with MOLT-4 leukemia, in the assay on HCC-2998 colon and in the assay with HCT-15 colon was more than 100 µM each time. Moreover, the TGI in the assay with SK-MEL-28 melanoma is more than 100 µM.
`Cc1csc(-n2c(C)nc3cc(Cl)ccc3c2=O)n1`: the TGI in the assay with HT29 colon, in the assay with M14 melanoma, with RXF 393 renal, in the assay on MOLT-4 leukemia, in the assay on UACC-62 melanoma and with HCC-2998 colon was more than 100 µM in each case. In addition, the TGI with PC-3 prostate, in the assay with HCT-15 colon and in the assay on SK-MEL-28 melanoma was more than 100 µM in each case.
For the molecule `CCCCC[C@H]1CCCCCCCCCC(=O)OC2C(O[C@@H]3OC(C)[C@H](OC(=O)[C@@H](C)CC)C(O[C@@H]4OC(C)[C@H](O)C(O)[C@@H]4O)[C@@H]3OC(=O)[C@H](C)CC)[C@H](OC3C(O)[C@@H](O)C(C)O[C@H]3O1)OC(CO)[C@H]2O` (stereo partly drawn), the TGI with HT29 colon came out at 30.3 µM; with HS 578T breast it was 35.8 µM; with M14 melanoma, 32.3 µM; with MOLT-4 leukemia, 35.4 µM; with UACC-62 melanoma, 30.9 µM; in the assay on HCC-2998 colon, 31.8 µM. In addition, the TGI in the assay on PC-3 prostate was 29.8 µM; with HCT-15 colon, 30.6 µM; with SK-MEL-28 melanoma it was 30.9 µM.
`CN/N=C(\C(=O)Nc1ccc(C)c(C)c1)C(C(=O)OC)c1nc2ccc([N+](=O)[O-])cc2[nH]c1=O` (stereo not drawn): the TGI with HT29 colon, with M14 melanoma, in the assay with RXF 393 renal, in the assay on MOLT-4 leukemia, with UACC-62 melanoma and in the assay on HCC-2998 colon was more than 100 µM each time. Also, the TGI in the assay with HCT-15 colon and with SK-MEL-28 melanoma was more than 100 µM in each case.
Turning to `O=C1c2cc([N+](=O)[O-])sc2C(=O)c2c([N+](=O)[O-])csc21`, the TGI in the assay with M14 melanoma is 1.26 µM; in the assay on RXF 393 renal, 1.76 µM; in the assay on MOLT-4 leukemia, 0.484 µM; with UACC-62 melanoma, 1.19 µM; with HCC-2998 colon, 2.3 µM; with PC-3 prostate, 3.09 µM. Moreover, the TGI came out at 4.41 µM in the assay on HCT-15 colon and 1.92 µM in the assay on SK-MEL-28 melanoma.
`O=C1CC(c2ccccc2)S(=O)c2ccccc2N1` (stereo not drawn): the TGI in the assay on HT29 colon, in the assay with HS 578T breast, in the assay on M14 melanoma, in the assay on MOLT-4 leukemia, in the assay with UACC-62 melanoma and in the assay on PC-3 prostate was more than 100 µM in each case. Besides, the TGI in the assay with HCT-15 colon and with SK-MEL-28 melanoma was more than 100 µM in each case.

(Values after PubChem BioAssay (NCI).)
